Where two headings read alike, the source gives them in different places.
How the values were obtained:
Assay type in all cases: cell-based
[1] = system: Human neutrophils; assay: Inhibition of ROS production in human neutrophils (isoluminol chemiluminescence); conditions: Homo sapiens, Neutrophil, fMLP+TNF-α stimulated PMN
Procedure, shortened: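 Neutrophils from healthy-donor buffy coats (3×10^6/ml in HBSS with Ca/Mg) pre-incubated 30 min at 37° C with compound (0.1–10 μM), primed with TNF-α 20 ng/ml for 10 min, then added to fibrinogen-coated wells. Isoluminol/HRP chemiluminescence recorded every 25 sec for 250 sec after fMLP (1 μM), background-subtracted.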

[2] = system: IFN-gamma; assay: Cytokine release after LPS induction on human whole blood: IFNγ
Experimental: (§1) Aim of this in vitro method is to assess compounds effects on release of a panel of cytokines from whole blood following lipopolysaccharide (LPS) induced inflammatory reaction. Whole blood was incubated with compounds for 1 h prior to LPS induction. Cytokine levels in blood were measured using a multiplex FACS-based panel.
(§2) IC50 values determined for the tested compounds expressed in microM [μM] and the values for the inhibition of cytokines were listed for each compound.
(§3) Effect on cytokines release after LPS induction was performed on the compounds dissolved in DMSO or H2O to reach 10-fold concentrated stock solutions and dissolved in culture media.
(§4) Test system: Whole blood was removed from a single donor (into lithium heparin coated tubes; BD Vacutainer; 367886) and diluted 1:5 with RPMI 1640 (Thermo Fisher, 61870036). Within 30 minutes of sampling, blood was incubated with compounds for 1 h prior to LPS stimulation (O111:B4—Sigma L4391; 10 ng/ml final concentration). Stimulation continued under standard cell culture conditions (37° C. with 5% CO2) overnight (18 h), after which plates were centrifuged and supernatant removed and frozen at −80° C. until used for analyses.
(§5) Dilution of test compounds: 10×concentrated solutions (concerning to the final assay concentrations) of each test compound were prepared with the appropriate solvent (in DMSO or in water). These 10× compound solutions (10 μl) were then added to 90 μl pre-diluted whole blood (whole blood: RPMI1640, 1:5) resulting in the final assay concentration.
(§6) Test method: Diluted whole blood (80 μl) was pre-incubated with compounds (10 μl) to give final assay concentrations of 100, 30, 10, 3, 1, 0.3 and 0.1×10^−6M. Blood was incubated at 37° C. with 5% CO2 for 1 h. LPS was diluted in cell culture media to a concentration of […]; 10 μl was added to the whole blood to give a final concentration of 10 ng/ml. Plates were incubated at 37° C. for 18 h. Plates were centrifuged at 3,000 RPM for 5 minutes at 4° C. and supernatant removed and frozen at −80° C. until FACS analysis was carried out.
(§7) Cytokine release was measured using a custom multiplex system (ELISA Genie) according to manufacturers instructions. Prepared samples were run on an Attune NxT flow cytometer (Thermo Fisher).
(§8) Quantification of cytokine release inhibition: known concentration standards were run as part of the cytokine panel to allow quantification of each cytokine concentration in each sample. This was carried out using FCAP Array v3.0 software.
(§9) Results: The dose response relationship on cytokine release following LPS induction of inflammatory response in whole blood was assessed for all compounds. IC50 values were determined for each compound for a panel of cytokines (GM-CSF, IFN-gamma, IL-1beta, IL-2, IL-4, IL-5, IL-6, IL-8, IL-9, IL-10, IL-12p40, IL-13, IL-17A, IL-17F, IL-18, IL-21, IL-22, IL-33, TGF-beta, TNF-alpha, TNF-beta).

[3] = system: IL-10; assay: Cytokine release after LPS induction on human whole blood: IL-10
Experimental: as §1, §2, §3, §4, §5, §6, §7, §8, §9

[4] = system: IL-9; assay: Cytokine release after LPS induction on human whole blood: IL-9
Experimental: as §1, §2, §3, §4, §5, §6, §7, §8, §9

[5] = system: IL-1beta; assay: Cytokine release after LPS induction on human whole blood: IL-1β
Experimental: as §1, §2, §3, §4, §5, §6, §7, §8, §9

[6] = Homo sapiens, LPS 10 ng/ml, 18 h, read-out: Whole Blood: IFNγ IC50
[7] = human whole blood, inhibition of LPS induced inflammation, read-out: IC50 IFNγ
[8] = Homo sapiens, LPS 10 ng/ml, 18 h, read-out: Whole Blood: IL-10 IC50
[9] = human whole blood, inhibition of LPS induced inflammation, read-out: IC50 IL-10
[10] = Homo sapiens, LPS 10 ng/ml, 18 h, read-out: Whole Blood: IL-9 IC50
[11] = human whole blood, inhibition of LPS induced inflammation, read-out: IC50 IL-9
[12] = Homo sapiens, LPS 10 ng/ml, 18 h, read-out: Whole Blood: IL-1β IC50
[13] = human whole blood, inhibition of LPS induced inflammation, read-out: IC50 IL-1b

O=C(O)c1cc(O)c(C(=O)Nc2ccccc2-c2nnn[nH]2)cc1O [Ia-001a-Tz, 4-(2-(1H-tetrazol-5-yl)phenyl-aminocarbonyl)-2,5-dihydroxybenzoic acid] was tested, and the inhibition at 0.3 µM [1] was 54.3%, the IC50 [1] was 1.54 µM and the IC50 [2, 6] was > 100 µM. The IC50 [2, 7] was 100 µM, the IC50 [3, 8] was 26.1 µM and the IC50 [3, 9] was 26.1 µM. For the same compound, the IC50 [4, 10] was 8.63 µM, the IC50 [4, 11] was 8.63 µM and the IC50 [5, 12] was > 100 µM. The IC50 [5, 13] was 100 µM.

Compound O=C(O)c1cc(O)cc(CSCc2cc(O)cc(C(=O)O)c2O)c1O [IVc-058a, 3-((2,5-Dihydroxy-3-carboxyphenyl)methylthiomethyl)-2,5-dihydroxybenzoic acid] has an inhibition at 0.3 µM [1] of 77%, an IC50 [1] of 0.29 µM and an IC50 [2, 6] of 10.6 µM. It also gave an IC50 [2, 7] of 10.6 µM, an IC50 [3, 8] of 16.4 µM and an IC50 [3, 9] of 16.4 µM. The IC50 [4, 10] was 31.1 µM, the IC50 [4, 11] was 31.1 µM and the IC50 [5, 12] was 27.5 µM. For the same compound, the IC50 [5, 13] was 27.5 µM.

O=C(O)Cc1cc(O)c(C(=O)Nc2ccccc2-c2nnn[nH]2)cc1O [IIIa-001aTz] gave an inhibition at 0.3 µM [1] of 69.3%, an IC50 [2, 6] of 18.9 µM and an IC50 [2, 7] of 18.9 µM. The IC50 [3, 8] was 7.78 µM, the IC50 [3, 9] was 7.78 µM and the IC50 [4, 10] was 3.01 µM. For the same compound, the IC50 [4, 11] was 3.01 µM, the IC50 [5, 12] was > 100 µM and the IC50 [5, 13] was 100 µM.

For O=C(O)c1cc(NC(=O)c2cc(O)c(C(=O)Nc3ccccc3-c3nnn[nH]3)cc2O)ccc1O [Ic-001a-Tz/004a, 5-(4-(2-(1H-tetrazol-5-yl)phenylaminocarbonyl)-2,5-dihydroxybenzamido)-2-hydroxy benzoic acid], the inhibition at 0.3 µM [1] was 82.8%, the IC50 ([2]; Homo sapiens, 18 h, read-out: Whole Blood: IFNγ IC50) was 0.61 µM and the IC50 ([2]; Homo sapiens, read-out: IC50 IFNγ) was 0.61 µM. It also gave an IC50 ([3]; Homo sapiens, 18 h, read-out: Whole Blood: IL-10 IC50) of 19.5 µM, an IC50 ([3]; Homo sapiens, read-out: IC50 IL-10) of 19.5 µM and an IC50 ([4]; Homo sapiens, 18 h, read-out: Whole Blood: IL-9 IC50) of 8.48 µM. For the same compound, the IC50 ([4]; Homo sapiens, read-out: IC50 IL-9) was 8.48 µM, the IC50 ([5]; Homo sapiens, 18 h, read-out: Whole Blood: IL-1β IC50) was > 100 µM and the IC50 ([5]; Homo sapiens, read-out: IC50 IL-1b) was 100 µM.

O=C(O)c1cc(O)c(C(=O)Nc2ccccc2S(=O)(=O)O)cc1O [Ia-001c, 2,5-dihydroxy-4-(2-sulfophenylaminocarbonyl)benzoic acid] showed an inhibition at 0.3 µM [1] of 40.4%, an IC50 [1] of 2.4 µM and an IC50 [2, 6] of 0.44 µM. For the same compound, the IC50 [2, 7] was 0.44 µM, the IC50 [3, 8] was 1.9 µM and the IC50 [3, 9] was 1.9 µM. The IC50 [4, 10] was 46.9 µM, the IC50 [4, 11] was 46.9 µM and the IC50 [5, 12] was > 100 µM. For the same compound, the IC50 [5, 13] was 100 µM.

O=C(O)c1cc(NC(=O)c2cc(O)c(C(=O)O)cc2O)cc(C(=O)O)c1 [Ia-015a, 5-(4-carboxy-2,5-dihydroxybenzamido)isophthalic acid] was tested, and the inhibition at 0.3 µM [1] was 43.8%, the IC50 [1] was 0.387 µM and the IC50 [2, 6] was > 100 µM. The IC50 [2, 7] was 100 µM, the IC50 [3, 8] was 5.27 µM and the IC50 [3, 9] was 5.27 µM. For the same compound, the IC50 [4, 10] was 1.47 µM, the IC50 [4, 11] was 1.47 µM and the IC50 [5, 12] was > 100 µM. It also gave an IC50 [5, 13] of 100 µM.

CCOC(=O)c1cc(NC(=O)c2cc(O)c(C(=O)OCC)cc2O)cc(NC(=O)c2cc(O)c(C(=O)OCC)cc2O)c1 [Ib-010a-E3, ethyl 3,5-bis(2,5-dihydroxy-4-ethoxycarbonylbenzoylamino)benzoate] showed an inhibition at 0.3 µM [1] of 36.4%, an IC50 [1] of 6.52 µM and an IC50 [2, 6] of 2.79 µM. The IC50 [2, 7] was 2.79 µM, the IC50 [3, 8] was > 100 µM and the IC50 [3, 9] was 100 µM. The IC50 [4, 10] was 26.8 µM, the IC50 [4, 11] was 26.8 µM and the IC50 [5, 12] was > 100 µM. For the same compound, the IC50 [5, 13] was 100 µM.

Compound O=C(O)c1cc(O)c(CN(Cc2cc(O)c(C(=O)O)cc2O)Cc2cc(O)c(C(=O)O)cc2O)cc1O [IIIc-061a, Tris(4-carboxy-2,5-dihydroxyphenylmethyl)amine] has an inhibition at 0.3 µM [1] of 92.5%, an IC50 [2, 6] of 2.48 µM and an IC50 [2, 7] of 2.48 µM. For the same compound, the IC50 [3, 8] was 17.9 µM, the IC50 [3, 9] was 17.9 µM and the IC50 [4, 10] was 8.85 µM. For the same compound, the IC50 [4, 11] was 8.85 µM, the IC50 [5, 12] was > 100 µM and the IC50 [5, 13] was 100 µM.
